This passage reports EC50 results from US20210276967A1 (OSPEDALE SAN RAFFAELE S.R.L., priority 2018, published 2021).

Holding throughout (type): cell-based
The test system of one experiment is HBV genotype E. The experiment is described as follows: Antiviral activity in HepG2 cells transfected with HBV genotype E plasmid, extracellular HBV DNA qPCR. As to conditions: Hepatitis B virus, read-out: HBV inhibition EC50 (Mean ± StD). The method, then:
(§1) HepG2 hepatoma cells transfected with HBV plasmids corresponding to the different isolates were used to perform antiviral assay against different HBV genotypes. HBV plasmids were obtained by cloning fragment containing of 1.1-mer HBV genome into the SacI/SaII sites of pcDNA3.1zeo(−) plasmid (V86520, Thermofisher Scientific). The HepG2 cell line was maintained in DMEM, supplemented with 10% of FBS, 1% glutamine and 1% penicillin/streptomycin.
(§2) HBV inhibition activity was determined on different HBV genotypes. For this purpose plasmids pcDNA3.1Zeo(−)-HBV1.1 expressing HBV genotypes A, B, C, D, E were transfected in HepG2 cell line and extracellular HBV quantification was performed by direct qPCR as described above. In detail, cells were seeded at 20,000 cells/well in polylisine coated 96-multiwell plates and 24 h later HBV plasmids were transfected with lipofection using manufacturer's procedure (Lipofectamine 3000 Reagent, Thermofisher Scientific). Five hours after transfection cells were extensively washed with PBS and compounds were added in 8-point dose-response curve in 0.5% DMSO as described above. After 4 days of incubation at 37° C. cells were subjected to cell viability assays and extracellular HBV quantification, in order to evaluate both the cytotoxic potential and the anti-viral activity of compounds, as described above. […]

A further experiment deals with HBV genotype C. The experiment is described as follows: Antiviral activity in HepG2 cells transfected with HBV genotype C plasmid, extracellular HBV DNA qPCR. As to conditions: Hepatitis B virus, read-out: HBV inhibition EC50 (Mean ± StD). The protocol:
as §1, §2

Another experiment concerns HBV genotype D. As to the kind of experiment: Antiviral activity in HepG2 cells transfected with HBV genotype D plasmid, extracellular HBV DNA qPCR. The settings on record: Hepatitis B virus, read-out: HBV inhibition EC50 (Mean ± StD). The method, then: as §1, §2
The subject of the next experiment is HBV genotype A. The experiment is described as follows: Antiviral activity in HepG2 cells transfected with HBV genotype A plasmid, extracellular HBV DNA qPCR. As to conditions: Hepatitis B virus, read-out: HBV inhibition EC50 (Mean ± StD). The protocol:
as §1, §2

A further experiment concerns HBV genotype B. The experiment is described as follows: Antiviral activity in HepG2 cells transfected with HBV genotype B plasmid, extracellular HBV DNA qPCR. As to conditions: Hepatitis B virus, HepG2, read-out: HBV inhibition EC50 (Mean ± StD, μM). The protocol:
as §1, §2

The test system of experiment [1] is HBV (HBeAg, surrogate of cccDNA biogenesis). The experiment is described as follows: In vitro HBV infection of HepG2-NTCP cells, extracellular HBeAg ELISA (establishment of HBV cccDNA). The settings on record: Hepatitis B virus, 144 h, 6 days, read-out: HBeAg* inhibition EC50 (Mean ± StD, μM) *surrogate of cccDNA biogenesis. The source says:
HepG2-NTCP hepatoma cell line was used to conduct the infection experiments. HepG2-NTCP was obtained by ectopic expression in HepG2 cells of the human Sodium Taurocholate Cotransporting Polypeptide receptor (hNTCP) using a lentiviral vector expressing human NTCP (Seeger et al., Molecular Therapy-Nucleic Acids, 2014). hNTCP was recently identified as HBV receptor (Yan H. et al., Elife. Nov. 13, 2012; 3). The complete viral life cycle of HBV could be obtained in the HepG2-NTCP cell line. HepG2-NTCP cells were maintained in DMEM, supplemented with 10% of FBS, 1% glutamine and 1% penicillin/streptomycin.
The ability of compounds to inhibit the establishment of HBV cccDNA in infected cells was investigated in an in vitro model of HBV infection. For this purpose HepG2-NTCP cell line, engineered to stably express the HBV receptor human sodium taurocholate cotrasporting polypeptide (hNTCP), was used and HBV particles were produced in HepAD38 following standard published procedure (Hepatitis B methods and protocols, Guo H., Cuconati, A.; 2017; Humana press). In detail HepG2-NTCP were seeded at 20.000 cells/well in collagen coated 96 multiwell plates. […] The ability of compounds to inhibit the establishment of HBV cccDNA was evaluated by quantification of extracellular HBeAg with ELISA (Elisa Kit HBE.CE. Manufacturer: DIA.PRO). […]

Structures are written as SMILES.

Consider `Cc1cc(N)c(S(N)(=O)=O)cc1C(=O)Nc1cc(F)c(F)c(F)c1` [Example E17, 4-amino-2-methyl-5-sulfamoyl-N-(3,4,5-trifluorophenyl)benzamide], for which the EC50 in the experiment on HBV genotype E was determined as 51.2 ± 13.6 nM; in the experiment on HBV genotype C, 28.2 ± 10.8 nM; in the experiment with HBV genotype D it was 38.7 ± 11.1 nM; in the experiment on HBV genotype A, 58.2 ± 25.4 nM; with HBV genotype B, 0.0498 ± 0.0179 µM; in experiment [1] it was 0.147 µM.
